Structures are written as SMILES. Residues, ends and D or L forms follow the SMILES beside them. *: point of attachment. Cbz = O=C(OCc1ccccc1)*

Turning to `COC(=O)CCc1ccc(NC(=O)C(Cn2ccnc2)NS(=O)(=O)c2ccc(Cl)cc2)cc1` (racemic), the melting point (in general, the temperature, or range, at which the solid turns liquid) lay within 79 to 82 °C. Then `O=C(c1ccccc1)N1CCc2[nH]c3cccc(-c4ccccc4OC4CCCC4)c3c2CC1`, with 187 to 189 °C; and `COc1cc(I)c(I)cc1OC`, with 134 to 136 °C. `CCCCC1=C(C(=O)OCC)C(c2ccccc2Cl)c2c[nH]nc2N1` (configuration not stated) had a melting point of 209 °C.

The molecule `O=C(O)CC1(c2ccccc2)CCCC1C(=O)O` (configuration not stated) returned a melting point of 205 to 208 °C. With `Cn1ncc2c1-c1c(Oc3cccnc3OCCN3CCCC3=O)sc(C(=O)O)c1CC2`, the melting point was in the range of 202 to 204 °C. `CC(C)(C)c1cc(C(=O)N2CC(O)C2)cc(C(C)(C)C)c1O`: the melting point was in the range of 185 to 189 °C.

Take `c1ccc2nc(CSc3nc4cccc5c4n3CCC5)ccc2c1`: the melting point fell in the range of 125 to 126 °C. In turn, `O=C(CI)Nc1ccc(C(=O)O)cc1` returned a melting point of 194 to 196 °C.

Molecule `C[Si](C)(C)Sc1ncn([Si](C)(C)C)n1` returned a melting point of 90 to 94 °C.

`COc1cc(C(=O)NS(C)(=O)=O)cc(OC)c1-c1ccc(C[C@H](NC(=O)c2c(Cl)cccc2Cl)C(=O)O)cc1` gave a melting point of 277 to 278 °C. Then `CCOC(=O)c1ccc(-c2ccc(F)cc2)cc1-c1ccc(OC)c(OC)c1`, with 127 °C; and `CC(=O)N1CCc2ccsc2C1=O`, with 92 °C; and `CSCc1noc(C(C)c2ccc(-c3ccccc3)c(F)c2)n1` (configuration not stated), with 55.5 to 56 °C.

`CCCCC1(O)CCN(C(=O)C(c2ccccc2)n2cnc3[nH]ncc3c2=S)CC1` (configuration not stated): the melting point lay within 98 to 102 °C. Turning to `CN1C(C)(C)CC(OC(=O)NNC(=O)C(=O)NC2CC(C)(C)NC(C)(C)C2)CC1(C)C`, the melting point lay in the range of 165 to 170 °C. In turn, `O=C(O)c1ccc(C(=O)N2CCN(C(=O)N3CCOCC3)CC2)cc1` displayed a melting point of 203 to 205 °C. `Clc1ccc(Nc2nc3ccccc3c3[nH]c(C4CCC4)nc23)cc1Cl`: the melting point lay within 131 to 134 °C. `CCOC(=O)c1cn(CCCl)c2cc(Cl)c(F)cc2c1=O` yielded a melting point of 222 °C. `COc1ccc(-c2cc(C)sc2-c2ccc(OC)cc2)cc1`: the melting point was in the range of 93 to 97 °C. `N#Cc1ccc2c(c1)NC(=O)C2c1ncnc2nn(C3CCCC3)cc12` (configuration not stated) had a melting point of 340 to 344 °C. As for `CCCCCCCCCCOc1c(Br)sc(-c2nc3ccccc3s2)c1OCCCCCCCCCC`, the melting point lay within 42 to 43 °C. `Cc1ccc2[nH]cc(C3=C(c4cn(C)c5ccc(C)cc45)C(=O)N(C)C3=O)c2c1` had a melting point of 110 to 112 °C.

As for `CN(C)CCC1=Cc2ccccc2N(C)c2ccc(Cl)cc21`, the melting point is 82 °C. Then `N#Cc1[nH]c2ccccc2c1Cl`, with 150 to 154 °C; and `COc1ccc(S(N)(=O)=O)cc1C(=O)NCc1ccc(OCCN(C)C)cc1`, with 122 to 123 °C; and `OC[C@@H](OCc1ccccc1)[C@@H](O)[C@H](O)[C@@H](CO)OCc1ccccc1`, with 116 to 117 °C.

Molecule `Cn1c(=O)c(C(=O)O)nc2cc(F)c([N+](=O)[O-])cc21` gave a melting point of 173 to 175 °C.

`COc1cc(OC)c(C2CCN(C)CC2O)c(O)c1C(C)=O` (configuration not stated) yielded a melting point of 216 °C. Regarding `O=c1[nH]c2cc(F)c(F)cc2c(=O)n1CCCN1CC=C(c2ccc(Cl)cc2)CC1`, the melting point was in the range of 204 to 205 °C. Under `CC(=O)N(N=Nc1cc(C(F)(F)F)ccc1C#N)c1cc(C(F)(F)F)ccc1C#N` stands 111 to 112 °C; under `COc1ccc(Oc2c(OC)cc([N+](=O)[O-])c3nccc(C)c23)cc1`, 158 to 160 °C. The molecule `COc1ccc(-c2nnc3c4ccccc4c(Nc4cccc(C(=O)Nc5ccc(N(C)C)cc5)c4)nn23)cc1` came in with a melting point of 314 to 318 °C. `COc1cn(-c2cccc(N3CCOCC3)c2F)nc(-c2ccnn2-c2ccccc2)c1=O`: the melting point was 187 to 189 °C. `CCCOc1ccccc1-c1nc2c(CCCc3ccccc3)cccc2c(=O)[nH]1` showed a melting point of 89 °C. For the molecule `Nc1nc2cc(OCc3ccccc3)ccc2c2c1ncn2CCOc1ccccc1`, the melting point was in the range of 200 to 201 °C. For the molecule `Oc1ccc(Nc2cc(Cl)ncn2)cc1`, the melting point lay in the range of 241 to 244 °C. `O=S(=O)(NC1(CO)CCCC1)c1ccc2c(Cl)cnc(Cl)c2c1` returned a melting point of 148 to 150 °C. Then `O=C(NCCO)C(O)C(Oc1ccccc1[N+](=O)[O-])c1ccccc1` (configuration not stated), with 166 to 188 °C; and `NC(=O)C(OCC1c2ccccc2-c2ccccc21)c1ccc(C(=O)O)cc1` (configuration not stated), with 232 to 235 °C.

`CCCCNC(=O)[C@@H](C[C@H](O)[C@@H](N)C[C@H](Cc1ccc(OC)c(CCOCOC)c1)C(C)C)C(C)C`: the melting point lay within 56 to 58 °C.

`Cc1cc(F)ccc1-c1ccc(S(=O)(=O)N2c3ccccc3CC2C(=O)NCc2ccc(CC(=O)O)cc2)cc1` (configuration not stated) returned a melting point of 95 to 100 °C. Consider `Cc1cc(OC(=O)C(C)(C)C)c(C)c(C)c1OCc1ccccc1`, for which the melting point lay within 50 to 53 °C. In the case of `O=C(O)CCCCCCCCCCCCCCCCC(=O)ON1C(=O)CCC1=O`, the melting point was in the range of 120 to 122 °C.

`Cc1ccnc2c1N(O)C(=O)c1cccnc1N2C1CC1` registered a melting point of 239 to 241 °C.

`CC1CNCC1NC(=O)OC(C)(C)C` (configuration not stated) came in with a melting point of 86.8 to 87 °C. In turn, `O=C(O)CCC(=NOCc1ccc(OCc2cn3c(Cl)cccc3n2)cc1)c1ccccc1` yielded a melting point of 160 to 161 °C. The molecule `CC(CCO)NC1=NS(=O)(=O)c2sc(Cl)cc2N1` (configuration not stated) showed a melting point of 199 to 203 °C. For the molecule `C#CCOc1ccc(NCc2ccc(Cl)nc2)c(C(=O)c2ccc(C(C)C)cc2)c1`, the melting point is 96 °C. Then `CC(C)OC(=O)c1cc(-n2c(=O)[nH]c(CF)c(F)c2=O)c(F)cc1Cl`, with 171 to 173 °C. Molecule `COc1ccc(C(=O)O)c(O)c1O` registered a melting point of 234 °C. Take `O=C(Nc1ccccc1)C1=NOCCS1`: the melting point is 109 to 110 °C. `CS(=O)(=O)c1ccc(-c2[nH]nc(C(=O)CCCO[N+](=O)[O-])c2C2CCCCC2)cc1` registered a melting point of 122 to 124 °C. The molecule `CC(C)Nc1ccc(-c2ncc(C(F)(F)F)cc2Cl)cc1[N+](=O)[O-]` had a melting point of 107 to 109 °C. In turn, `O=c1cc(-c2ccncc2)nc2n1Cc1ccccc1N2` returned a melting point of 315 to 317 °C. In turn, `OCc1ccc2cc(-c3nnc(CSCCOc4ccccc4)o3)ccc2c1` registered a melting point of 132 to 133 °C. Then `CC(C)(C)NS(=O)(=O)c1ccccc1C(O)c1ccccc1` (configuration not stated), with 160 °C.

`CC(C)(C)NC(=O)C1(O)CC(C)(C)NC(C)(C)C1` registered a melting point of 134 to 136 °C. The molecule `CCn1c(=O)c2c(nc(/C=C/c3ccc(OC)c(OC)c3OC)n2C)n(CC)c1=O` had a melting point of 153 to 154 °C.

`COC(=O)C(CC(C)C)NC(=O)C(Cc1ccccc1)NC(=O)OCc1ccccc1` (stereo not drawn) (Cbz-Phe-Leu-OMe; configuration not given here): the melting point is 125 to 126 °C. In turn, `NC(=O)c1cccc(Oc2ncccc2C(=O)NCc2ccccc2Cl)c1` came in with a melting point of 153 to 155 °C. In the case of `CC(=N)c1ccccc1O`, the melting point lay within 137 to 139 °C. `Cc1cc(C)cc(Nc2nnc(Cc3ccncc3)c3ccccc23)c1` showed a melting point of 174 to 175 °C. With `COC(=O)C1=C(C)NC(C)=C(C(=O)OC)C1c1ccccc1CO`, the melting point lay within 218 to 220 °C. `CN(CC1OCCO1)c1nccc(Oc2ccc(NC(=O)c3cc(F)cc(N4CCOCC4)c3)c3ccccc23)n1` registered a melting point of 111 to 112 °C. `CNc1nc(-c2ccc(-c3ccccc3)s2)c2cc(OC)c(OC)cc2n1` registered a melting point of 201 to 203 °C. For the molecule `CC(C)(C)c1ccc(C(=O)Nc2ccc(OCC(=O)O)cc2)cc1`, the melting point was in the range of 179 to 181 °C. `COc1cc(Oc2cccc(C(F)(F)F)c2)nc(C(=O)Nc2ccccc2)c1` displayed a melting point of 131 to 133 °C. As for `Cc1cc(S)n2nc(CN=[N+]=[N-])nc2n1`, the melting point fell in the range of 214 to 215 °C. Turning to `CCCCOCCOc1ccc(-c2ccc3c(c2)C=C(C(=O)Nc2ccc(N(C)Cc4nncn4CCC)cc2)CCN3CCC)cc1`, the melting point fell in the range of 131 to 133 °C. Then `CCn1ccc(=O)c(O)c1C`, with 204 to 205 °C; and `O=c1[nH]c2cc(Cl)ccc2c(O)c1-c1cccc(Cl)c1`, with > 300 °C.

Consider `Cc1n[nH]c(C)c1CC1CC2c3cccc4[nH]cc(c34)CC2N(C)C1` (configuration not stated), for which the melting point is > 300 °C.

With `COc1ccc(-c2cc(C(=O)Nc3ccccc3)c(=O)n(CC3CC3)n2)cc1`, the melting point amounted to 163 °C. Under `O=C1c2ccccc2C(=O)c2c(O)c(S(=O)(=O)c3ccccc3)cc(O)c21` stands 258 to 260 °C; under `COC(=O)c1cncn1C1c2ccccc2C(=O)C1(C)C` (configuration not stated), 104 to 108 °C; under `O=[N+]([O-])c1cc(C(F)(F)F)ccc1NC1CCCCC1`, 80.1 °C.

Turning to `CC1CCC(C(C)C)C(OC(=O)[C@@H](c2ccc(OCc3ccc4ccccc4n3)cc2)C2CCCCCC2)C1` (some centres not stated), the melting point came to 127 °C.

In the case of `NC(=O)c1cccc(CSCCNC(=O)c2c(Cl)cccc2Cl)c1`, the melting point is 148 to 150 °C. With `NC(=O)CC1Cc2cc(Br)cc3[nH]c(=O)c(=O)n1c23` (configuration not stated), the melting point was > 300 °C.

For `Cc1cc(C)c2c(n1)N(CCN(C(C)C)C(C)C)C(=O)N(C)C2`, the melting point lay in the range of 97 to 99 °C.

`CCC1CC2C3CCC4=CC(=O)CCC4C3CCC2(C)C1OC(=O)COC(C)=O` (configuration not stated): the melting point is 98 to 100 °C.

In turn, `Oc1ccc(C=C2C3=CC=CCC3=CCc3ccccc32)cc1` yielded a melting point of 56.9 °C.

In turn, `NC(=O)NN=Cc1ccc(OCc2ccccc2F)cc1` yielded a melting point of 211 to 212 °C. Under `O=Cc1ccc2c(c1)S(=O)c1ccccc1C=C2` (configuration not stated) stands 188 to 190 °C; under `CCCCCC(O)CCC1CCC(=O)C1CCCCC=CC(=O)O` (configuration not stated), 71 to 75 °C; under `COc1ccc(-c2nc(N3CCNCC3)c3c(C)c(C#N)sc3n2)cc1`, 210 to 212 °C.

The values above are taken from a melting point compilation (Tetko et al.; mined from patent text by program, amines drawn as free bases though some values may be those of a salt).
